Data from US20250339391A1, “METHODS FOR EFFECTIVE MANAGEMENT OF PAIN” (South Rampart Pharma, Inc., priority 2024, published 2025).

Test: Jet milling and nano-milling: particle size and solubility
Format: physicochemical
Protocol: In certain instances, a crystalline compound of Formula I is jet milled. Thereafter, the milled compound of Formula I is dispersed in a solution comprising 1% hydroxypropyl cellulose (1% HPC) and sterile water for injection and subjected to wet milling. The target particle size is approximately D90 0.15 μm. The disclosure provides using nanomilling and jet-milling techniques, to prepare an oral nanoparticle suspension containing 100 mg/mL SRP-001 in preserved aqueous 1% HPC. An oral nanoparticle suspension containing 100 mg/mL SRP-001 in aqueous 1% HPC preserved with 0.1% sodium benzoate was used.
The drug therapeutic candidate is manufactured in a two-step process (Latitude Pharmaceuticals, Inc., San Diego, CA USA). First, SRP-001 is jet milled. Second, the milled API is dispersed in a solution comprising 1% hydroxypropyl cellulose (1% HPC) and sterile water for injection and subjected to wet milling. The target particle size is approximately D90 0.15 μm. […] An oral nanoparticle suspension containing 100 mg/mL SRP-001 in aqueous 1% HPC preserved with 0.1% sodium benzoate was manufactured for use in nonclinical studies as Lot LPI2021028 and stored at 5° C.±3° C. […] The same formulation as above was manufactured under cGMP for use in clinical studies as Lot LPI2021031 and stored at 5° C.±3° C. […] This lot has been placed on stability at 5° C., 25° C./60% RH, and 40° C./75% RH. Finally, an appearance-matched placebo consisting of 2% microcrystalline cellulose in aqueous 1% HPC preserved with 0.1% sodium benzoate and 0.05% EDTA disodium dihydrate was manufactured under cGMP for use in clinical studies. The above oral suspensions were manufactured by Latitude Pharmaceuticals Inc. (San Diego, CA, USA).

## CCN(CC)C(=O)c1ccccc1S(=O)(=O)NCC(=O)Nc1ccc(O)cc1 [SRP-001, N,N-diethyl-2-[[2-(4-hydroxyanilino)-2-oxo-ethyl]sulfamoyl]benzamide]
After jet milling and nano-milling
  solubility: increase the solubility
After jet milling and nano-milling for 17 h (FIG. 25A)
  particle size: 0.1666 μm
Before milling (FIG. 25B)
  particle size: 879.33 μm
